Measurements: patent US8952034B2, “Fused heterocyclic compounds as ion channel modulators” (Gilead Sciences, Inc., priority 2009, dated 2015)

Molecular target: wild-type human cardiac sodium channel, hNav1.5 (Homo sapiens, UniProt Q14524)
Assay: Late INa screening assay (automated whole cell patch clamp, PatchXpress)
Type: cell-based
Conditions: HEK293 cells expressing hNav1.5, late INa generated with 10 μM Tefluthrin (or 50 nM ATX II); for inhibition at 10 µM: compound at 10 μM, read-out: LateINa_10 uM (percent block of late INa); for inhibition at 1 µM: compound at 1 μM, read-out: LateINa_1 uM (percent block of late INa)
Outline: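 Late sodium current through wild-type human hNav1.5 stably expressed in HEK293 cells (no beta subunits) was recorded by automated whole-cell patch clamp on a PatchXpress 7000A at 24-27° C. Late INa was induced with 10 μM Tefluthrin or 50 nM ATX II. Cells were stepped from −120 mV to −20 mV for 250 ms at 0.1 Hz, and percent block was normalized to current in Na-free extracellular solution.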

Chain of wild-type human cardiac sodium channel, hNav1.5 (Q14524 whole entry): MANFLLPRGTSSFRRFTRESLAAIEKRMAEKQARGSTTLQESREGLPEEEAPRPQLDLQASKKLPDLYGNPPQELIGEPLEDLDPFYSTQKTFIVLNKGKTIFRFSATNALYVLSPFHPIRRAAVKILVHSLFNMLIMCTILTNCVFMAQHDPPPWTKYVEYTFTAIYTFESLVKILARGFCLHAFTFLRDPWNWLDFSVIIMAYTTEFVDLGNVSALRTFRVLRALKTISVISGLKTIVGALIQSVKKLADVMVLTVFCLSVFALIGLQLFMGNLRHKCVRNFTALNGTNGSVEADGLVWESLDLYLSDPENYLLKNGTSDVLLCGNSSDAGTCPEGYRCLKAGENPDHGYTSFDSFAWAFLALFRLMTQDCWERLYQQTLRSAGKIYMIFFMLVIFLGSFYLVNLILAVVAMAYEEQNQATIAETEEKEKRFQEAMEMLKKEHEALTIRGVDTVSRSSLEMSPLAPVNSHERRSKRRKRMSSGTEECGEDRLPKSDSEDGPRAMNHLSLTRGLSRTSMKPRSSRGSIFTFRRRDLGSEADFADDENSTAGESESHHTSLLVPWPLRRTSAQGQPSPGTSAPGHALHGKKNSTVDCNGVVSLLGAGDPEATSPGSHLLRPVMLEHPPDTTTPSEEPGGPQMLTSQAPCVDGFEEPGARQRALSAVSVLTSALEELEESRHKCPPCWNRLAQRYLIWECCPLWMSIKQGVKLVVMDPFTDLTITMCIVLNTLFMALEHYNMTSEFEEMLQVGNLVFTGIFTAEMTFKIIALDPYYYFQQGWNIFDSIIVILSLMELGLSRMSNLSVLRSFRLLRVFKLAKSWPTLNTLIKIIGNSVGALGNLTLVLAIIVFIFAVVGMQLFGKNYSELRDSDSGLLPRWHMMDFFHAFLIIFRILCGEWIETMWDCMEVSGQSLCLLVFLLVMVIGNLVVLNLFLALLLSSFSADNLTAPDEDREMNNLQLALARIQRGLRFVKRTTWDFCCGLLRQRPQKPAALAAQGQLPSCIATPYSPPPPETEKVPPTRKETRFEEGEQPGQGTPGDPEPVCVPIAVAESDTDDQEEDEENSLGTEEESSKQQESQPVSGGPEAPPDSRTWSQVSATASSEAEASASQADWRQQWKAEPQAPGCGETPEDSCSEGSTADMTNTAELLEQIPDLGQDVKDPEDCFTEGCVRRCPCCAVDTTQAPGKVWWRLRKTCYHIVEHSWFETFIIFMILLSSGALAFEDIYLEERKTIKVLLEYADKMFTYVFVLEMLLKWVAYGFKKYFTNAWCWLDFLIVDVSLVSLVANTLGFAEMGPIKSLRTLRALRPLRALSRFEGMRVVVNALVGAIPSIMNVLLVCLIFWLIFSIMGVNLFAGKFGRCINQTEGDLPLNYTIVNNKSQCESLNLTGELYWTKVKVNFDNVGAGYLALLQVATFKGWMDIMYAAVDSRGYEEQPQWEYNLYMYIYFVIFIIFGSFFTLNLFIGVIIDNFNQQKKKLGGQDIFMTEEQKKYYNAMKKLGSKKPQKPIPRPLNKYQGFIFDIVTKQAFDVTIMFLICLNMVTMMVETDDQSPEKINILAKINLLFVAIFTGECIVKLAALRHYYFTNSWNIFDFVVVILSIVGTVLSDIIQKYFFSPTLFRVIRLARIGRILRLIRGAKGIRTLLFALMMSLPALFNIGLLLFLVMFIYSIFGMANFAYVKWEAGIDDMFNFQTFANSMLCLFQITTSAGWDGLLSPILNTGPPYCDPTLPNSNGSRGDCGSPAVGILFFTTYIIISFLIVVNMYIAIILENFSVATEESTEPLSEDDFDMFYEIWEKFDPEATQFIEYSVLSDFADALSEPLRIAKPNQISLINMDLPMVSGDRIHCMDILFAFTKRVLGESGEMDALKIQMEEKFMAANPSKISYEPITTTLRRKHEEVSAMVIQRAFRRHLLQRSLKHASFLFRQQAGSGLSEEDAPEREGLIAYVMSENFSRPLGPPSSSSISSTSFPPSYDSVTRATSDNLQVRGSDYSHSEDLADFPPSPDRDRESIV

Row | SMILES | inhibition at 10 µM [%] | inhibition at 1 µM [%]
1 | CS(=O)(=O)Nc1ccc(-c2nnc3ccc(-c4ccc(OC(F)(F)F)cc4)cn23)cc1 [BHN-75, N-(4-{6-[4-(trifluoromethoxy)phenyl][1,2,4]triazolo[4,3-a]pyridin-3-yl}-phenyl)methanesulfonamide] | 30.1 | 
2 | OC(c1nnc2ccc(-c3ccc(OC(F)(F)F)cc3)cn12)C(F)(F)F (stereo not shown) [BHN-155, 2,2,2-trifluoro-1-{6-[4-(trifluoromethoxy)phenyl][1,2,4]triazolo[4,3-a]pyridin-3-yl}ethanol] |  | 16.2
3 | CC(C)c1nnc2ccc(-c3cc(F)c(Oc4ccccc4)c(F)c3)nn12 [BHN-201, 6-(3,5-difluoro-4-phenoxyphenyl)-3-(propan-2-yl)[1,2,4]triazolo[4,3-b]pyridazine] |  | 29.7
4 | FC(F)c1nnc2cnc(-c3ccc(Oc4ccccc4)cc3)cn12 [BHN-18, 3-(difluoromethyl)-6-(4-phenoxyphenyl)[1,2,4]triazolo[4,3-a]pyrazine] | 54.6 | 
